In PubChem BioAssay (NCI):
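How tested: cells in 96-well plates exposed to compound for 48 hours at five concentrations. GI50 is the concentration that inhibits growth by half. TGI denotes the concentration required for complete inhibition of growth.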

Assays:
Test in all cases: DTP human tumour cell line panel, 48 h
UACC-62 melanoma = system: UACC-62 melanoma
SNB-75 CNS = system: SNB-75 CNS
OVCAR-5 ovarian = system: OVCAR-5 ovarian
SK-MEL-2 melanoma = system: SK-MEL-2 melanoma
UACC-257 melanoma = system: UACC-257 melanoma
HOP-62 NSCLC = system: HOP-62 NSCLC
SW-620 colon = system: SW-620 colon
HCC-2998 colon = system: HCC-2998 colon
M14 melanoma = system: M14 melanoma
SNB-78 CNS = system: SNB-78 CNS

CC(=S)NC1C(Oc2ccc3c(C)cc(=O)oc3c2)OC(CO)C(O)C1O (stereo unspecified)
TGI (UACC-62 melanoma): > 100 µM | TGI (SNB-75 CNS): > 100 µM | TGI (OVCAR-5 ovarian): > 100 µM | TGI (SK-MEL-2 melanoma): > 100 µM | TGI (UACC-257 melanoma): > 100 µM | TGI (HOP-62 NSCLC): > 100 µM | TGI (SW-620 colon): > 100 µM

COc1cccc(C(=O)C(O)c2cccc(OC)c2OC)c1OC (stereo unspecified)
TGI (UACC-62 melanoma): > 100 µM | TGI (SNB-75 CNS): > 100 µM | TGI (HCC-2998 colon): > 100 µM | TGI (OVCAR-5 ovarian): > 100 µM | TGI (M14 melanoma): > 100 µM | TGI (SK-MEL-2 melanoma): > 100 µM | TGI (UACC-257 melanoma): > 100 µM | TGI (HOP-62 NSCLC): > 100 µM | TGI (SW-620 colon): > 100 µM

COc1nc(NC2OCC(OC(C)=O)C(OC(C)=O)C2OC(C)=O)c(N=C(C)C(C)=O)c(=O)n1C (stereo unspecified)
TGI (SNB-75 CNS): > 100 µM | TGI (SNB-78 CNS): > 100 µM | TGI (OVCAR-5 ovarian): > 100 µM | TGI (M14 melanoma): > 100 µM | TGI (SK-MEL-2 melanoma): > 100 µM | TGI (UACC-257 melanoma): > 100 µM | TGI (SW-620 colon): > 100 µM

C[Si](C)(C)C1=C2C(=O)c3ccccc3C(=O)C2=C([Si](C)(C)C)[C@@H]2CCCC[C@H]12
TGI (UACC-62 melanoma): > 100 µM | TGI (HCC-2998 colon): > 100 µM | TGI (OVCAR-5 ovarian): > 100 µM | TGI (M14 melanoma): > 100 µM | TGI (SK-MEL-2 melanoma): > 100 µM | TGI (UACC-257 melanoma): > 100 µM | TGI (SW-620 colon): > 100 µM

CCC1OC(=O)C(C)C(OC2CC(C)(O)C(O)C(C)O2)C(C)C(O)C(C)(O)CC(C)C(=O)C(C)C(O)C1C (stereo unspecified)
TGI (UACC-62 melanoma): > 300 µM | TGI (SNB-75 CNS): > 300 µM | TGI (HCC-2998 colon): > 300 µM | TGI (SNB-78 CNS): > 189 µM | TGI (OVCAR-5 ovarian): > 300 µM | TGI (SK-MEL-2 melanoma): > 300 µM | TGI (UACC-257 melanoma): > 300 µM | TGI (HOP-62 NSCLC): > 300 µM | TGI (SW-620 colon): > 300 µM

CN1C(=N\S(=O)(=O)c2ccc(Cl)cc2)/C(=N/N=P(c2ccccc2)(c2ccccc2)c2ccccc2)c2ccccc21
TGI (UACC-62 melanoma): > 100 µM | TGI (SNB-75 CNS): > 100 µM | TGI (HCC-2998 colon): > 100 µM | TGI (SNB-78 CNS): > 100 µM | TGI (OVCAR-5 ovarian): > 100 µM | TGI (M14 melanoma): > 100 µM | TGI (SK-MEL-2 melanoma): > 100 µM | TGI (UACC-257 melanoma): > 100 µM | TGI (SW-620 colon): > 100 µM

Cc1cccc2ns[s+]c12
TGI (UACC-62 melanoma): > 100 µM | TGI (SNB-75 CNS): > 100 µM | TGI (HCC-2998 colon): > 100 µM | TGI (SNB-78 CNS): > 100 µM | TGI (OVCAR-5 ovarian): > 100 µM | TGI (M14 melanoma): > 100 µM | TGI (UACC-257 melanoma): > 100 µM | TGI (HOP-62 NSCLC): > 100 µM | TGI (SW-620 colon): 32.7 µM

O=C(Cl)c1cc([N+](=O)[O-])cc([N+](=O)[O-])c1
TGI (UACC-62 melanoma): > 100 µM | TGI (SNB-75 CNS): > 100 µM | TGI (HCC-2998 colon): > 100 µM | TGI (SNB-78 CNS): > 100 µM | TGI (OVCAR-5 ovarian): > 100 µM | TGI (M14 melanoma): > 100 µM | TGI (SK-MEL-2 melanoma): > 100 µM | TGI (UACC-257 melanoma): > 100 µM | TGI (HOP-62 NSCLC): > 100 µM | TGI (SW-620 colon): > 100 µM

CN(C)CCCn1c2c(c3ccncc3c1=O)C(=O)c1ccccc1-2
GI50 (UACC-62 melanoma): 1220 nM | TGI (UACC-62 melanoma): 3.74 µM | GI50 (SNB-75 CNS): 1020 nM | TGI (SNB-75 CNS): 5.88 µM | GI50 (HCC-2998 colon): 1380 nM | TGI (HCC-2998 colon): 5.31 µM | GI50 (OVCAR-5 ovarian): 1820 nM | TGI (OVCAR-5 ovarian): 9.25 µM | GI50 (M14 melanoma): 1600 nM | TGI (M14 melanoma): 5.71 µM | GI50 (SK-MEL-2 melanoma): 2180 nM | TGI (SK-MEL-2 melanoma): 6.96 µM | GI50 (UACC-257 melanoma): 1680 nM | TGI (UACC-257 melanoma): 5.22 µM | GI50 (HOP-62 NSCLC): 862 nM | TGI (HOP-62 NSCLC): 20.6 µM | GI50 (SW-620 colon): 410 nM | TGI (SW-620 colon): 13.1 µM

CN(C)CCCN1c2ccc3ccccc3c2Sc2cccc(Cl)c21
TGI (UACC-62 melanoma): 4.82 µM | TGI (SNB-75 CNS): 12 µM | TGI (HCC-2998 colon): 2.96 µM | TGI (OVCAR-5 ovarian): 17.7 µM | TGI (M14 melanoma): 3.58 µM | TGI (SK-MEL-2 melanoma): 3.75 µM | TGI (UACC-257 melanoma): 3.1 µM | TGI (HOP-62 NSCLC): 9.32 µM | TGI (SW-620 colon): 4.33 µM

O=C(CCc1nnc2s/c(=C\c3ccc(Cl)cc3Cl)c(=O)n12)Nc1cc(Cl)c(Cl)cc1Cl
GI50 (UACC-62 melanoma): > 100000 nM | TGI (UACC-62 melanoma): > 100 µM | TGI (SNB-75 CNS): > 100 µM | TGI (HCC-2998 colon): > 100 µM | TGI (SNB-78 CNS): > 100 µM | GI50 (OVCAR-5 ovarian): > 100000 nM | TGI (OVCAR-5 ovarian): > 100 µM | GI50 (M14 melanoma): > 100000 nM | TGI (M14 melanoma): > 100 µM | GI50 (SK-MEL-2 melanoma): > 100000 nM | TGI (SK-MEL-2 melanoma): > 100 µM | GI50 (UACC-257 melanoma): > 100000 nM | TGI (UACC-257 melanoma): > 100 µM | GI50 (HOP-62 NSCLC): > 100000 nM | TGI (HOP-62 NSCLC): > 100 µM | GI50 (SW-620 colon): > 100000 nM | TGI (SW-620 colon): > 100 µM
